Source: ChEMBL document CHEMBL1201862, “PubChem BioAssay data set” (2004)
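Each compound was tested at five concentrations against cells in 96-well plates for 48 hours. The concentration for 50% growth inhibition is given as GI50.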 Active and inactive are the calls of the source. Cut-off read from the data, not from the text of the source: active = GI50 up to about 1.1 µM and inactive = higher. *1 amine or outer side, *2 acyl side, *3 side chain or, on linkers, in order; H or OH if unused. Where a SMILES comes first, the peptide text is derived from it. Bridges are numbered along the chain shown (N, C = ends). [ ]: non-standard residue; d: D form. The star is where a group is joined. X36 = O=C(C(CCCCNO[*:3])N[*:1])[*:2]; Fmoc = O=C(OCC1c2ccccc2-c2ccccc21)*

What was measured:
Experiment in all cases: DTP human tumour cell line panel, 48 h
HL-60 = test system: HL-60
HT-29 = test system: HT-29
HOP-62 = test system: HOP-62
NCI-H460 = test system: NCI-H460
CAKI-1 = test system: CAKI-1
HOP-92 = test system: HOP-92
UACC-257 = test system: UACC-257
SK-MEL-5 = test system: SK-MEL-5
SK-MEL-2 = test system: SK-MEL-2
SF-539 = test system: SF-539
M14 = test system: M14
SF-268 = test system: SF-268
OVCAR-3 = test system: OVCAR-3
HCC 2998 = test system: HCC 2998
A549 = test system: A549
NCI-H522 = test system: NCI-H522
SNB-75 = test system: SNB-75
MDA-MB-231 = test system: MDA-MB-231
MDA-MB-435 = test system: MDA-MB-435

Measured: GI50

COc1cc2cc3c4c(cc(OC)c(OC)c4c2cc1OC)CCN3C(=O)CCCC(=O)O
inactive: HL-60 > 100 µM | HT-29 > 100 µM | HOP-62 > 100 µM | NCI-H460 > 100 µM | CAKI-1 > 100 µM | HOP-92 > 100 µM | UACC-257 > 100 µM | SK-MEL-5 > 100 µM | SK-MEL-2 > 100 µM | SF-539 > 100 µM | M14 > 100 µM | SF-268 > 100 µM | OVCAR-3 > 100 µM | HCC 2998 > 100 µM | A549 > 100 µM | NCI-H522 > 100 µM

Cc1ccccc1C1SCc2nc3ccccc3n21 (stereo not drawn)
inactive: HL-60 1.92 µM | SNB-75 > 100 µM | CAKI-1 > 100 µM | HOP-92 2.43 µM | UACC-257 4.26 µM | SK-MEL-5 5.19 µM | SK-MEL-2 > 100 µM | SF-539 70.1 µM | SF-268 > 100 µM | OVCAR-3 > 100 µM | HCC 2998 > 100 µM | A549 > 100 µM | NCI-H522 21.8 µM

O=C1CCC2(c3ccc(F)cc3)Nc3ccccc3N12 (stereo not drawn)
inactive: HL-60 > 100 µM | HT-29 > 100 µM | HOP-62 > 100 µM | NCI-H460 > 100 µM | SNB-75 63.7 µM | CAKI-1 > 100 µM | HOP-92 > 100 µM | UACC-257 > 100 µM | SK-MEL-5 > 100 µM | SK-MEL-2 > 100 µM | SF-539 > 100 µM | M14 > 100 µM | SF-268 > 100 µM | OVCAR-3 > 100 µM | HCC 2998 > 100 µM | A549 > 100 µM | NCI-H522 > 100 µM

Cc1oc2nc(N(C)C)n3nnnc3c2c1C
inactive: HL-60 18.6 µM | HT-29 > 100 µM | MDA-MB-231 > 100 µM | MDA-MB-435 > 100 µM | SNB-75 67.5 µM | CAKI-1 > 100 µM | HOP-92 > 100 µM | UACC-257 > 100 µM | SK-MEL-5 > 100 µM | SF-539 > 100 µM | M14 > 100 µM | SF-268 > 100 µM | HCC 2998 > 100 µM | A549 > 100 µM | NCI-H522 > 100 µM

CN/C(=N\C#N)N(Cc1ccccc1)Cc1ccccc1
inactive: HL-60 > 100 µM | HT-29 > 100 µM | HOP-62 > 100 µM | NCI-H460 > 100 µM | SNB-75 > 100 µM | CAKI-1 > 100 µM | HOP-92 > 100 µM | UACC-257 > 100 µM | SK-MEL-5 > 100 µM | SK-MEL-2 > 100 µM | SF-539 > 100 µM | M14 > 100 µM | SF-268 > 100 µM | OVCAR-3 > 100 µM | HCC 2998 > 100 µM | A549 > 100 µM | NCI-H522 > 100 µM

COc1ccc(CNc2cc(OC)c(OC)c(OC)c2)cc1
inactive: HL-60 2.67 µM | HT-29 3.66 µM | HOP-62 5.57 µM | NCI-H460 3.47 µM | SNB-75 5.57 µM | CAKI-1 4.36 µM | HOP-92 7.48 µM | UACC-257 7.21 µM | SK-MEL-5 3.35 µM | SK-MEL-2 2.72 µM | SF-539 6.21 µM | M14 6.82 µM | SF-268 3.43 µM | OVCAR-3 3.14 µM | HCC 2998 6.32 µM | A549 6.11 µM | NCI-H522 3.12 µM

NC(=O)CNC(=O)C1CCCN1C(=O)C1CCCCNOC(=O)CCC(NC(=O)OCC2c3ccccc3-c3ccccc32)C(=O)NC(Cc2c[nH]c3ccccc23)C(=O)N1 (stereo not drawn) (Fmoc-EW[X36]PG-NH2; ester 1-3; configuration not given here)
inactive: HL-60 > 100 µM | HT-29 > 100 µM | MDA-MB-231 15.2 µM | HOP-62 > 100 µM | MDA-MB-435 > 100 µM | NCI-H460 > 100 µM | SNB-75 > 100 µM | HOP-92 > 100 µM | UACC-257 > 100 µM | SK-MEL-5 > 100 µM | SK-MEL-2 > 100 µM | SF-539 > 100 µM | M14 54.3 µM | SF-268 > 100 µM | OVCAR-3 > 100 µM | HCC 2998 > 100 µM | A549 > 100 µM | NCI-H522 > 100 µM

O=C(N/C(=C\c1ccc([N+](=O)[O-])cc1)c1nc2ccccc2s1)c1ccccc1
inactive: HT-29 31.6 µM | HOP-62 35.6 µM | SNB-75 26.7 µM | CAKI-1 31 µM | HOP-92 23.6 µM | UACC-257 28.1 µM | SK-MEL-5 25.7 µM | SK-MEL-2 23.7 µM | SF-539 23.6 µM | M14 31.9 µM | SF-268 20.1 µM | OVCAR-3 29.3 µM | HCC 2998 57.4 µM | A549 30.7 µM | NCI-H522 > 10 µM
